# According to patent US9211310B2, “Use of a Chinese medicine composition in preparing medicaments for treating secondary prevention of myocardial infarction” (TASLY PHARMACEUTICAL GROUP CO., LTD, priority 2010, dated 2015):
# Test system: patients after acute myocardial infarction
# Assay: TCM symptom score, total and single (chest pain, chest tightness, short breath, fatigue, palpitation, spontaneous perspiration, pale complexion), same clinical trial
# Assay type: in vivo, human
# Parameters: total score of TCM symptom, Mean / total score of TCM symptom, Min / total score of TCM symptom, Max / total score of TCM symptom, Md / change of total score of TCM symptom, Mean / change of total score of TCM symptom, Max / change of total score of TCM symptom, Md: scale not given here
# Conditions: FAS
# Description: 3508 patients who were in accordance with the diagnostic standards of AMI for 28 days to 2 years and differentiated as Qi deficiency and blood stagnation syndrome by TCM were studied. 0.5 g Chinese medicine composition prepared by the method of EXAMPLE 1 (Coded as QSYQ) was administrated half an hour after meal, 3 times per day.
# They included the overall survival time, angina pectoris score, TCM symptom score and life quality score, where angina pectoris score, TCM symptom score and life quality score were evaluated at randomization, in 1st, 3rd, 6th, 9th, 12th month after treatment and 18th month after follow-up.
# The analysis method referred to the angina pectoris score.
# [1] = 3 months after treatment-baseline
# [2] = 6 months after treatment-baseline
compound,measurement,setting,value
"CC(=O)Oc1ccccc1C(=O)O [Control group, aspirine]","total score of TCM symptom, Md",3 months after treatment,10.00
same,"total score of TCM symptom, Mean",3 months after treatment,10.90
same,"total score of TCM symptom, Min",3 months after treatment,0.00
same,"change of fatigue 0, % of patients",[1],(64.74%)
same,"change of fatigue 0, number of patients",[1],1107
same,"change of fatigue 2, % of patients",[1],(24.56%)
same,"change of fatigue 2, number of patients",[1],420
same,"change of fatigue 4, % of patients",[1],(4.09%)
same,"change of fatigue 4, number of patients",[1],70
same,"change of fatigue 6, % of patients",[1],(0.94%)
same,"change of fatigue 6, number of patients",[1],16
same,"change of fatigue −2, % of patients",[1],(5.03%)
same,"change of fatigue −2, number of patients",[1],86
same,"change of fatigue −4, % of patients",[1],(0.53%)
same,"change of fatigue −4, number of patients",[1],9
same,"change of fatigue −6, % of patients",[1],(0.12%)
same,"change of fatigue −6, number of patients",[1],2
same,"change of pale complexion 0, number of patients",[1],1387
same,"change of pale complexion 0, percent of patients",[1],(81.21%)
same,"change of pale complexion 1, number of patients",[1],259
same,"change of pale complexion 1, percent of patients",[1],(15.16%)
same,"change of pale complexion −1, number of patients",[1],62
same,"change of pale complexion −1, percent of patients",[1],(3.63%)
same,"change of palpitation 0, number of patients",[1],1125
same,"change of palpitation 0, percent of patients",[1],(65.79%)
same,"change of palpitation 1, number of patients",[1],415
same,"change of palpitation 1, percent of patients",[1],(24.27%)
same,"change of palpitation 2, number of patients",[1],43
same,"change of palpitation 2, percent of patients",[1],(2.51%)
same,"change of palpitation 3, number of patients",[1],6
same,"change of palpitation 3, percent of patients",[1],(0.35%)
same,"change of palpitation −1, percent of patients",[1],(6.96%)
same,"change of palpitation −2, number of patients",[1],2
same,"change of palpitation −2, percent of patients",[1],(0.12%)
same,"change of palpitation −3, number of patients",[1],0
same,"change of palpitation −3, percent of patients",[1],(0.00%)
same,"change of short breath 0, % of patients",[1],(71.29%)
same,"change of short breath 0, number of patients",[1],1219
same,"change of short breath 2, % of patients",[1],(20.47%)
same,"change of short breath 2, number of patients",[1],350
same,"change of short breath 4, % of patients",[1],(2.16%)
same,"change of short breath 4, number of patients",[1],37
same,"change of short breath 6, % of patients",[1],(0.53%)
same,"change of short breath 6, number of patients",[1],9
same,"change of short breath −2, % of patients",[1],(5.44%)
same,"change of short breath −2, number of patients",[1],93
same,"change of short breath −4, % of patients",[1],(0.12%)
same,"change of short breath −4, number of patients",[1],2
same,"change of short breath −6, % of patients",[1],(0.00%)
same,"change of short breath −6, number of patients",[1],0
same,"change of spontaneous perspiration 0, number of patients",[1],1083
same,"change of spontaneous perspiration 0, percent of patients",[1],(63.37%)
same,"change of spontaneous perspiration 1, number of patients",[1],392
same,"change of spontaneous perspiration 1, percent of patients",[1],(22.94%)
same,"change of spontaneous perspiration 2, number of patients",[1],76
same,"change of spontaneous perspiration 2, percent of patients",[1],(4.45%)
same,"change of spontaneous perspiration 3, number of patients",[1],20
same,"change of spontaneous perspiration 3, percent of patients",[1],(1.17%)
same,"change of spontaneous perspiration −1, percent of patients",[1],(7.08%)
same,"change of spontaneous perspiration −2, number of patients",[1],15
same,"change of spontaneous perspiration −2, percent of patients",[1],(0.88%)
same,"change of spontaneous perspiration −3, number of patients",[1],2
same,"change of spontaneous perspiration −3, percent of patients",[1],(0.12%)
same,"distribution of total score of TCM symptom: Medium, number of patients",6 months after treatment,418
same,"distribution of total score of TCM symptom: Medium, percentage of patients",6 months after treatment,(26.79%)
same,"distribution of total score of TCM symptom: Mild, number of patients",6 months after treatment,1133
same,"distribution of total score of TCM symptom: Mild, percentage of patients",6 months after treatment,(72.63%)
same,"distribution of total score of TCM symptom: Severe, number of patients",6 months after treatment,9
same,"distribution of total score of TCM symptom: Severe, percentage of patients",6 months after treatment,(0.58%)
same,"fatigue score 0, % of patients",6 months after treatment,(30.27%)
same,"fatigue score 0, number of patients",6 months after treatment,520
same,"fatigue score 2, % of patients",6 months after treatment,(61.00%)
same,"fatigue score 2, number of patients",6 months after treatment,1048
same,"fatigue score 4, % of patients",6 months after treatment,(7.86%)
same,"fatigue score 4, number of patients",6 months after treatment,135
same,"fatigue score 6, % of patients",6 months after treatment,(0.87%)
same,"fatigue score 6, number of patients",6 months after treatment,15
same,"pale complexion score 0, number of patients",6 months after treatment,871
same,"pale complexion score 0, percent of patients",6 months after treatment,(50.70%)
same,"pale complexion score 1, number of patients",6 months after treatment,657
same,"pale complexion score 1, percent of patients",6 months after treatment,(38.24%)
same,"pale complexion score 2, number of patients",6 months after treatment,179
same,"pale complexion score 2, percent of patients",6 months after treatment,(10.42%)
same,"pale complexion score 3, number of patients",6 months after treatment,11
same,"pale complexion score 3, percent of patients",6 months after treatment,(0.64%)
same,"palpitation score 0, number of patients",6 months after treatment,538
same,"palpitation score 0, percent of patients",6 months after treatment,(31.32%)
same,"palpitation score 2, number of patients",6 months after treatment,906
same,"palpitation score 2, percent of patients",6 months after treatment,(52.74%)
same,"palpitation score 4, number of patients",6 months after treatment,246
same,"palpitation score 4, percent of patients",6 months after treatment,(14.32%)
same,"palpitation score 6, number of patients",6 months after treatment,28
same,"palpitation score 6, percent of patients",6 months after treatment,(1.63%)
same,"short breath score 0, % of patients",6 months after treatment,(25.03%)
same,"short breath score 0, number of patients",6 months after treatment,430
same,"short breath score 2, % of patients",6 months after treatment,(0.06%)
same,"short breath score 2, number of patients",6 months after treatment,1
same,"short breath score 3, % of patients",6 months after treatment,(58.09%)
same,"short breath score 3, number of patients",6 months after treatment,998
same,"short breath score 6, % of patients",6 months after treatment,(16.30%)
same,"short breath score 6, number of patients",6 months after treatment,280
same,"short breath score 9, % of patients",6 months after treatment,(0.52%)
same,"short breath score 9, number of patients",6 months after treatment,9
same,"spontaneous perspiration score 0, number of patients",6 months after treatment,728
same,"spontaneous perspiration score 0, percent of patients",6 months after treatment,(42.37%)
same,"spontaneous perspiration score 1, number of patients",6 months after treatment,833
same,"spontaneous perspiration score 1, percent of patients",6 months after treatment,(48.49%)
same,"spontaneous perspiration score 2, number of patients",6 months after treatment,144
same,"spontaneous perspiration score 2, percent of patients",6 months after treatment,(8.38%)
same,"spontaneous perspiration score 3, number of patients",6 months after treatment,13
same,"spontaneous perspiration score 3, percent of patients",6 months after treatment,(0.76%)
same,"total score of TCM symptom, Max",6 months after treatment,34.00
same,"total score of TCM symptom, Md",6 months after treatment,9.00
same,"total score of TCM symptom, Mean",6 months after treatment,10.04
same,"total score of TCM symptom, Min",6 months after treatment,0.00
same,"change of fatigue 0, % of patients",[2],(56.96%)
same,"change of fatigue 0, number of patients",[2],974
same,"change of fatigue 2, % of patients",[2],(28.54%)
same,"change of fatigue 2, number of patients",[2],488
same,"change of fatigue 4, % of patients",[2],(6.43%)
same,"change of fatigue 4, number of patients",[2],110
same,"change of fatigue 6, % of patients",[2],(1.05%)
same,"change of fatigue 6, number of patients",[2],18
same,"change of fatigue −2, % of patients",[2],(6.32%)
